As a reminder, the IC50 is the concentration needed to halve the response being measured. The melting point is the temperature, or range, at which the solid turns liquid. For orientation: Km means the concentration of substrate that gives half-maximal velocity.

One data set concerns the target PDE10 from pig striatum (Sus scrofa, UniProt A0A287B941). Kind of data set: Inhibition of PDE10 from pig striatum ([3H]-cAMP SPA, Methods A and B). Type of data set: biochemical. As to conditions: for IC50: PDE10 pig. Here is the method: Striatum from male Wistar rats (180-200 g), male hybrid pigs (150 kg) and male guinea pigs (CRL (HA), 500 g) respectively were collected and frozen at −70° C. At the day of preparation 0.5 g striatum was homogenised in 10 ml 50 mM Tris/Mg-buffer at 4° C. and centrifuged for one hour at 100000 g. The supernatant is called the cytosolic fraction and was removed and stored on ice. The pellet was resuspended in the same buffer, but containing 1% Triton and incubated for 45 min at 4° C. Both fractions were independently applied onto a 5 ml Hi Trap™ QHP column at the Äkta-FPLC. After washing the columns the bound PDE protein was eluted with an increasing sodium chloride gradient (0 mM-500 mM sodium chloride) in 50 mM Tris/Mg-buffer at 4° C. for the cytosolic fraction and in the presence of 1% Triton for the membrane fraction. […] The fractions with PDE10-activity were pooled and frozen in aliquots until use at −20° C. PDE10 activity was determined in a one step procedure in microtiter plates. […] Nonspecific activity was tested without the enzyme. The reaction was initiated by addition of the substrate solution and was carried out at 37° C. for 30 minutes. Enzymatic activity was stopped by addition of 25 μl YSi-SPA-beads (Amersham-Pharmacia). One hour later the mixture was measured in a liquid scintillation counter for microtiter plates (Microbeta Trilux). To pipette the incubation mixture a robot Biomek (Fa. Beckman) is used. […] For determination of IC50 values the Hill-plot, 2-parameter-model, was used. […] Striatum from male hybrid pigs (150 kg) were collected and frozen at −70° C. At the day of preparation 0.5 g striatum was homogenised in 10 ml 50 mM Tris/Mg-buffer at 4° C. and centrifuged for one hour at 100000 g. The supernatant was removed and the pellet was resuspended in the same buffer, but containing 1% Triton and incubated for 45 min at 4° C. The membrane fraction was applied onto a 5 ml Hi Trap™ QHP column at the Äkta-FPLC. After washing the column the bound PDE protein was eluted with an increasing sodium chloride gradient (0 mM-500 mM sodium chloride) in 50 mM Tris/Mg-buffer at 4° C. in the presence of 1% Triton. […] The fractions with PDE10-activity were pooled and frozen in aliquots until use at −20° C. PDE10 activity was determined in a one step procedure in microtiterplates. […] Nonspecific activity was tested without the enzyme. The reaction was initiated by addition of the substrate solution and was carried out at 37° C. for 30 minutes. Enzymatic activity was stopped by addition of 25 μl YSi-SPA-beads (Amersham-Pharmacia). One hour later the mixture was measured in a liquid scintillation counter for microtiterplates (Microbeta Trilux). To pipette the incubation mixture a robot Biomek (Fa. Beckman) is used. […] For determination of IC50 values the Hill-plot, 2-parameter-model, was used.

Another data set addresses T1, human recombinant PDE10A (Homo sapiens, UniProt Q9Y233).
T1 construct: made in house; host or cells: SF21 insect cells (baculovirus)
The data set is described as follows: Inhibition of human recombinant PDE10A ([3H]-cAMP SPA, Method B). Type of data set: biochemical. Conditions: read-out: PDE10 inhibition IC50 [nM] PDE10A human.

In data set [1] the test system is rats. Conditions: Kostowski et al. 1976; cited from earlier work.
The test system of data set [2] is rats. As to conditions: Kostowski et al. 1976; cited from earlier work. This is another data set of the same source.
Data set [3] relates to rats. Conditions: Kostowski et al. 1976; cited from earlier work. The source holds these as a separate data set.
The target in another data set is T2, PDE10 from rat striatum (Rattus norvegicus, UniProt Q9QYJ6).
T2 construct: from tissue; host or cells: rat striatum (male Wistar)
T2 sequence (Q9QYJ6 1-794): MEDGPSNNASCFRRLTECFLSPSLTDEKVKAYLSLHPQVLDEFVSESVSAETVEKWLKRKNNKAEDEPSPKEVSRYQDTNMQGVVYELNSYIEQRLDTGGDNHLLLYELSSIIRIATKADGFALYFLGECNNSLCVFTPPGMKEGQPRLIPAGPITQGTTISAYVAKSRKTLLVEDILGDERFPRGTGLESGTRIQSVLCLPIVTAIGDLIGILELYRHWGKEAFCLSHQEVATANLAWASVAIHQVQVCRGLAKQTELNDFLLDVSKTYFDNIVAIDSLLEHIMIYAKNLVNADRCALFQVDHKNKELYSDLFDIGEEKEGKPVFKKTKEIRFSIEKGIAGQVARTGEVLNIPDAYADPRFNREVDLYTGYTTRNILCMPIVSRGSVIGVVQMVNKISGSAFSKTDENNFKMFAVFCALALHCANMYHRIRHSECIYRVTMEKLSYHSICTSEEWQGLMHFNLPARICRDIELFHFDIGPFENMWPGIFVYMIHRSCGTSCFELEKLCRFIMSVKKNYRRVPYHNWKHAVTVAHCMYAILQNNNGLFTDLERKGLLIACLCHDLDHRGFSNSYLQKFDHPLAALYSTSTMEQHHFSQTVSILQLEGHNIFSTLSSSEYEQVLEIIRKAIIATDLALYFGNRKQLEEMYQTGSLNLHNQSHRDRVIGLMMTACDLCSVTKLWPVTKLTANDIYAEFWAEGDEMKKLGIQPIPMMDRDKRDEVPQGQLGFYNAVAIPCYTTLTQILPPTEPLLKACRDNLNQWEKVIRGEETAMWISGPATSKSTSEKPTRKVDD
Kind of data set: Inhibition of PDE10 from rat striatum (Method A). In kind it is biochemical. As to conditions: read-out: Km of substrate. As for the experimental part: Striatum from male Wistar rats (180-200 g), male hybrid pigs (150 kg) and male guinea pigs (CRL (HA), 500 g) respectively were collected and frozen at −70° C. At the day of preparation 0.5 g striatum was homogenised in 10 ml 50 mM Tris/Mg-buffer at 4° C. and centrifuged for one hour at 100000 g. The supernatant is called the cytosolic fraction and was removed and stored on ice. The pellet was resuspended in the same buffer, but containing 1% Triton and incubated for 45 min at 4° C. Both fractions were independently applied onto a 5 ml Hi Trap™ QHP column at the Äkta-FPLC. After washing the columns the bound PDE protein was eluted with an increasing sodium chloride gradient (0 mM-500 mM sodium chloride) in 50 mM Tris/Mg-buffer at 4° C. for the cytosolic fraction and in the presence of 1% Triton for the membrane fraction. […] The fractions with PDE10-activity were pooled and frozen in aliquots until use at −20° C. PDE10 activity was determined in a one step procedure in microtiter plates. […] Nonspecific activity was tested without the enzyme. The reaction was initiated by addition of the substrate solution and was carried out at 37° C. for 30 minutes. Enzymatic activity was stopped by addition of 25 μl YSi-SPA-beads (Amersham-Pharmacia). One hour later the mixture was measured in a liquid scintillation counter for microtiter plates (Microbeta Trilux). […]

Data set [4] deals with Phosphodiesterase (PDE) 10A (Homo sapiens, UniProt Q9Y233). As to conditions: Soderling et al. 1999; read-out: Km of substrate; cited from earlier work.
Chain of Phosphodiesterase (PDE) 10A (Q9Y233 whole entry): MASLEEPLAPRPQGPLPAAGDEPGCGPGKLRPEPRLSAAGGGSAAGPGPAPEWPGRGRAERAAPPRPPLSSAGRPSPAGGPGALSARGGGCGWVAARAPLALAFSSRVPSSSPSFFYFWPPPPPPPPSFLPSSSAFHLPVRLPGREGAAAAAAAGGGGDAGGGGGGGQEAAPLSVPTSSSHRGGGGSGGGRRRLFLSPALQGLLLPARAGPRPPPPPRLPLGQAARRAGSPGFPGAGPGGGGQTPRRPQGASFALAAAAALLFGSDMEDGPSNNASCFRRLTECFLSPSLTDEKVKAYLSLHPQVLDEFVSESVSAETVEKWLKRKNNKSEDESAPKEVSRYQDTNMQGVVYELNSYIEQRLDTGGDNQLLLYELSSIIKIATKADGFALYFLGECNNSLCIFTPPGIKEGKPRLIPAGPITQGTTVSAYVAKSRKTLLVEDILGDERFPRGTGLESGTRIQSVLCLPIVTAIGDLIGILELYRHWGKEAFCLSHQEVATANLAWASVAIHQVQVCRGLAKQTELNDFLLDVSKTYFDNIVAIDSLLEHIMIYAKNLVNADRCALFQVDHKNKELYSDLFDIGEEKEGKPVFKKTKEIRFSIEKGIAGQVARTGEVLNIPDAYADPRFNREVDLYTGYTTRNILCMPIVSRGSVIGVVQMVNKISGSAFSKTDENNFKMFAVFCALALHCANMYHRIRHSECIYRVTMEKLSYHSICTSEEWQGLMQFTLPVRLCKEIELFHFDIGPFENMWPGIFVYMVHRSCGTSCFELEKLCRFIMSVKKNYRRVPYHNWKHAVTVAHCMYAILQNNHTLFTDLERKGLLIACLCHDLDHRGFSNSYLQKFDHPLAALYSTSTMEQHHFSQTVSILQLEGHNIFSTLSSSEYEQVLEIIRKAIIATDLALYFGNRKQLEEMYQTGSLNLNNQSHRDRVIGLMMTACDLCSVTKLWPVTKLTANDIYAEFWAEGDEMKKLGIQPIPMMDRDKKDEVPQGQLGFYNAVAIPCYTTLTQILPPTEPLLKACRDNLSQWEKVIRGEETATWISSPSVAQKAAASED

T1 sequence (Q9Y233 1-779 isoform Q9Y233-1): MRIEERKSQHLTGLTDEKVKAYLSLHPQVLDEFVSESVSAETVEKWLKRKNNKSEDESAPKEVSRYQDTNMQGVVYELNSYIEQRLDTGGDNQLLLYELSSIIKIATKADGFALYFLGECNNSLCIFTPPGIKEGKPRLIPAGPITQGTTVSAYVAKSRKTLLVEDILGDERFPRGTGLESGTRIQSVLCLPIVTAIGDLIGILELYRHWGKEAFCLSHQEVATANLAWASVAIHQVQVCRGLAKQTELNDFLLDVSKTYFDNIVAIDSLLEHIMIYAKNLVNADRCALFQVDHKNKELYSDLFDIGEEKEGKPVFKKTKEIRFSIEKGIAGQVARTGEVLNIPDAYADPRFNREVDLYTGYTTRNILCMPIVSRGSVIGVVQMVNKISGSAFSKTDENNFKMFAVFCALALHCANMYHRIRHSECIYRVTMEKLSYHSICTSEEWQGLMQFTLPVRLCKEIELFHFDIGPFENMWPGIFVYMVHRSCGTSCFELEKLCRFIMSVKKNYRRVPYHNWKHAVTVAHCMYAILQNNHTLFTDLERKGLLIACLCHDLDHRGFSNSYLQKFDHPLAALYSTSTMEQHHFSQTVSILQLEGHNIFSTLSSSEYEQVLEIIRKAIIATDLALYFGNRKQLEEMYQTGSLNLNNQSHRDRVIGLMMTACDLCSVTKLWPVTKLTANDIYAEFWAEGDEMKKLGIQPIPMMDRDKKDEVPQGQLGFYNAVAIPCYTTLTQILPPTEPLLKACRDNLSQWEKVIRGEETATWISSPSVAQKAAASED

Consider `COc1cc(OC)c2nc(C)c3c(C)nc(-c4ccccc4C)n3c2c1` [Example 52, 6,8-Dimethoxy-3,4-dimethyl-1-o-tolyl-imidazo[1,5-a]quinoxaline], for which the melting point was in the range of 168 to 169 °C. Also, the IC50 against PDE10 from pig striatum was at most 10 nM. Also, the half-inhibitory concentration (IC50) on human recombinant PDE10A was at most 10 nM.
For `Cc1nc(C2CCCCC2)n2c1c(N)nc1ccc(OCC3CC3)cc12` [Example 40, 1-Cyclohexyl-8-cyclopropylmethoxy-3-methyl-imidazo[1,5-a]quinoxalin-4-ylamine], the melting point lay within 241 to 242 °C. Also, the IC50 against PDE10 from pig striatum was in the range of 10 to 100 nM. In addition, the IC50 on human recombinant PDE10A is at least 100 nM.
Molecule `Cc1nc(-c2ccccc2Cl)n2c1c(C)nc1c(OCC3CC3)cc(OCC3CC3)cc12` [Example 50, 1-(2-Chloro-phenyl)-6,8-bis-cyclopropylmethoxy-3,4-dimethyl-imidazo[1,5-a]quinoxaline] registered a melting point of 180 to 195 °C. At PDE10 from pig striatum, this molecule showed an IC50 of at most 10 nM. In addition, the IC50 on human recombinant PDE10A was at most 10 nM.
As for `Cc1nc(C2CCCCC2)n2c1c(C)nc1ccc(OCC3CC3)cc12` [Example 44, 1-Cyclohexyl-8-cyclopropylmethoxy-3,4-dimethyl-imidazo[1,5-a]quinoxaline], the melting point lay within 154 to 157 °C. At PDE10 from pig striatum, this molecule gave an IC50 of 10 to 100 nM. For the same molecule, at human recombinant PDE10A, the IC50 was at least 100 nM.
The molecule `CCCc1nc(C)c2c(C)nc3cc(OCc4ccc5ccccc5n4)ccc3n12` [Example 49, 3,4-Dimethyl-1-propyl-7-(quinolin-2-ylmethoxy)-imidazo(1,5-a)quinoxaline] registered a melting point of 134 to 136 °C. Also, the 50% inhibitory concentration (IC50) on PDE10 from pig striatum was at most 10 nM. Also, the IC50 on human recombinant PDE10A is at most 10 nM.
For the molecule `COc1ccc2c(c1)nc(C)c1c(C)nc(-c3ccccc3Cl)n12` [Example 47, 1-(2-Chloro-phenyl)-7-methoxy-3,4-dimethyl-imidazo[1,5-a]quinoxaline], the melting point lay within 186 to 188.5 °C. At PDE10 from pig striatum, the IC50 is at most 10 nM. At human recombinant PDE10A, the IC50 is 10 to 100 nM.
Molecule `CCCc1nc(C)c2c(C)nc3ccc(F)cc3n12` [Example 13, 3,4-Dimethyl-8-fluoro-1-propyl-imidazo(1,5-a)quinoxaline] had a melting point of 140 to 144 °C. Also, the IC50 against PDE10 from pig striatum lay within 10 to 100 nM.
Take `COc1ccc(Cc2nccc3cc(OC)c(OC)cc23)cc1OC` [Papaverine]: in the data set with rats [1], the “dopamine concentration in rat brain” value was “reducing”. The haloperidol-induced catalepsy result in the data set with rats [2] is given as “increases”. The apomorphine-induced stereotypies entry with rats [3] is given as “reduces”.
In the case of `CCCc1nc(C)c2c(C)nc3c(OC)cc(OC)cc3n12` [Example 45, 6,8-Dimethoxy-3,4-dimethyl-1-propyl-imidazo[1,5-a]quinoxaline], the melting point fell in the range of 185 to 187 °C. At PDE10 from pig striatum, this molecule displayed an IC50 of at most 10 nM. The IC50 at human recombinant PDE10A was at most 10 nM.
`CCCc1nc(C)c2c(Cl)nc3ccc(N4CCCCC4)cc3n12` [Intermediate B10] returned a melting point of 105 to 108 °C. On PDE10 from pig striatum, this molecule returned an IC50 of 10 to 100 nM.
In turn, `COc1cc(OC)c2nc(C)c3c(C)nc(-c4ccccc4Cl)n3c2c1` [Example 53, 1-(2-Chloro-phenyl)-6,8-dimethoxy-3,4-dimethyl-imidazo[1,5-a]quinoxaline] showed a melting point of 183 to 189 °C. At PDE10 from pig striatum, this molecule returned an IC50 of at most 10 nM. At human recombinant PDE10A, the IC50 was at most 10 nM.
In the case of `Nc1nc2c(ncn2[C@@H]2O[C@@H]3COP(=O)(O)O[C@H]3[C@H]2O)c(=O)[nH]1` [cGMP], the Michaelis constant (Km) at PDE10 from pig striatum (Method A, PDE10 from pig striatum, read-out: Km of substrate) is 2.2 µM; on PDE10 from rat striatum it was 1.8 µM; in data set [4], 3 µM.
`Cc1nc(C2CCCCC2)n2c1c(C)nc1ccc(F)cc12` [Example 14, 1-Cyclohexyl-3,4-dimethyl-8-fluoro-imidazo(1,5-a)quinoxaline] yielded a melting point of 195 to 200 °C. Besides, the IC50 against PDE10 from pig striatum was in the range of 10 to 100 nM.
As for `CCc1nc(C)c2c(C)nc3ccc(F)cc3n12` [Example 12, 3,4-Dimethyl-1-ethyl-8-fluoro-imidazo(1,5-a)quinoxaline], the melting point lay within 139 to 142 °C. Moreover, on PDE10 from pig striatum, the half-inhibitory concentration (IC50) is at least 100 nM.
The corresponding values for `Cc1nc(C2CCCCC2)n2c1c(Cl)nc1ccc(Cl)cc12` [Intermediate B9, 4,8-Dichloro-1-cyclohexyl-3-methyl-imidazo(1,5-a)quinoxaline] are 244 to 248 °C and at least 100 nM.
Molecule `CCCc1nc(C)c2c(Cl)nc3ccc(F)cc3n12` [Intermediate B6, 4-Chloro-8-fluoro-3-methyl-1-propyl-imidazo(1,5-a)quinoxaline] returned a melting point of 133 to 135 °C. The molecule also came in with an IC50 on PDE10 from pig striatum of 10 to 100 nM.
`CCCc1nc(C)c2c(C)nc3ccc(OCC4CC4)cc3n12` [Example 42, 8-Cyclopropylmethoxy-3,4-dimethyl-1-propyl-imidazo[1,5-a]quinoxaline] came in with a melting point of 110 to 112 °C. On PDE10 from pig striatum, this molecule yielded an IC50 of 10 to 100 nM. Besides, the IC50 on human recombinant PDE10A was in the range of 10 to 100 nM.
Molecule `COc1cc(OC)c2nc(C)c3c(C)nc(C4CCCCC4)n3c2c1` [Example 51, 1-Cyclohexyl-6,8-dimethoxy-3,4-dimethyl-imidazo[1,5-a]quinoxaline] returned a melting point of 219 to 222 °C. The IC50 against PDE10 from pig striatum is at most 10 nM. Further, the IC50 on human recombinant PDE10A was at most 10 nM.
Regarding `Cc1nc(C2CCCCC2)n2c1c(C)nc1ccc(Cl)cc12` [Example 10, 8-Chloro-1-cyclohexyl-3,4-dimethyl-imidazo(1,5-a)quinoxaline], the melting point was in the range of 228 to 234 °C. This molecule had an IC50 at PDE10 from pig striatum of 10 to 100 nM.
